We go through 4 compounds from patent US10828315B2 (Madrigal Pharmaceuticals, Inc., priority 2013, dated 2020).

Several values for one entry are separate records, joined by “and”; a condition that tells them apart may be missing. Identical values can stand only once. Like-named read-outs stand apart in the source and are kept apart here.

The subject of data set [1] is HER2. The experiment in a line: HER2 degradation in BT-474 cells (Example 3, Methods 1 and 2). The class given is cell-based, human. The text has this:
This example illustrates how a HER2 degradation assay may be used as a test to determine and select Hsp90-targeting moieties suitable for use in SDC-TRAPs of the invention, and further illustrates the ability of SDC-TRAPs to target cells preferentially expressing Hsp90. Such a test may further be used to determine the Hsp90 binding ability of SDC-TRAPs of the invention, as well as through competitive binding assays and cell-based Hsp90 client protein degradation assays known in the art.
After treatment, each cytoplasmic sample is prepared from 1×10^6 cells by incubation of cell lysis buffer (#9803, Cell Signaling Technology) on ice for 10 minutes. The resulting supernatant used as the cytosol fractions is dissolved with sample buffer for SDS-PAGE and run on a SDS-PAGE gel, blotted onto a nitrocellulose membrane by using semi-dry transfer. Non-specific binding to nitrocellulose is blocked with 5% skim milk in TBS with 0.5% Tween at room temperature for 1 hour, then probed with anti-HER2/ErB2 mAb (rabbit IgG, #2242, Cell Signaling) and anti-Tubulin (T9026, Sigma) as housekeeping control protein. HRP-conjugated goat anti-rabbit IgG (H+L) and HRP-conjugated horse anti-mouse IgG (H+L) are used as secondary Ab (#7074#7076, Cell Signaling) and LumiGLO reagent, 20× Peroxide (#7003, Cell Signaling) is used for visualization. The Hsp90 client protein HER2 is degraded when cells are treated with Hsp90-targeting moieties or SDC-TRAPs of the invention.
BT-474 cells are plated in the interior 60 wells of a 96 well black clear bottom plate (20,000 cells/well) in DMEM medium, with DMEM media in the surrounding 36 wells, and incubated at 37° C. with 5% CO2 overnight. On the second day, concentration response curve source plates are produced (10 point, 3-fold dilution of compounds in DMSO) followed by a 1:30 dilution in an intermediate dilution plate containing DMEM. Compound is transferred from the intermediate plate to the cell plate at a dilution of 1:10. The cells are then incubated at 37° C. with 5% CO2 for 24 hours.
Cells are then fixed in 4% phosphate-buffered paraformaldehyde for 30 minutes at room temperature and then permeabilized by washing five times with 0.1% Triton X-100 in PBS for 5 minutes at room temperature on a shaker. […] Cells are washed five times with 0.1% Tween-20 in PBS for 5 minutes at room temperature on a shaker and incubated with fluorescently-labeled secondary antibody (LI-COR, #926-32211) diluted 1:1000 in blocking buffer, and DRAQ5 nuclear stain (Biostatus Limited, # DRAQ5) diluted 1:10,000, at room temperature on a shaker for 1 hour. Cells are washed 5 times with 0.1% Tween-20 in PBS for 5 minutes at room temperature on a shaker and imaged on a LI-COR Odyssey imaging station. The raw data is normalized to DRAQ5 and the HER2 EC50 is calculated using XLfit™.

The nature of data set [2]: Artificial membrane permeability assay (PAMPA). Particulars: same protocol, second table. In general terms: PAMPA measures passive passage across an artificial lipid membrane.
The subject of the next data set is Human H3122 NSCLC cells. Kind of data set: Cell viability assay (CellTiter-Glo) in H3122 cells (Example 4). Conditions: NCI-H3122. The class given is cell-based. On the procedure: Human H3122 NSCLC cells were obtained and grown in RPMI in the presence of fetal bovine serum (10%), 2 mM L-glutamine and antibiotics (100 IU/ml penicillin and 100 μg/ml streptomycin, Sigma Aldrich.) Cells were maintained at 37° C., 5% CO2 atmosphere.
Cell viability was measured using the CellTiter-Glo® assay (Promega). In brief, cells were plated in 96-well plates in triplicate at optimal seeding density (determined empirically) and incubated at 37° C., 5% CO2 atmosphere for 24 hr prior to the addition of drug or vehicle (0.3% DMSO) to the culture medium. At the end of the assay, CellTiter-Glo was added to the wells per manufacturer's recommendation, shaken for two minutes and incubated for 10 minutes at room temperature. Luminescence (0.1 sec) was measured with a Victor II microplate reader (Perkin Elmer) and the resulting data were used to calculate cell viability, normalized to vehicle control.
Cells as described above were treated with exemplary SDC-TRAPs and their viability determined as above as well. The following table illustrates the results.
Background: In ATP-based viability assays light output follows the ATP content of the culture.

The nature of data set [3]: Stability in cell culture media (Example 18).
Experimental: 98 μL of DMEM+10% FBS, +1% P/S, +1.5 g/L sodium bicarbonate cell culture media was mixed with 2 μL of DMSO and aliquotted into 96-well plates at 250 μL per 0, 1, 2, and 18 hour time point.
3×50 μL media samples in 96 were held in 96-well plates at −80° C. until the last time point was extracted. 200 μL of methanol containing IS was added and mixed by vortex at 1500 rpm for 1.5 minutes at room temperature. The samples were centrifuged at 4400 rpm for 10 minutes at 8° C.
The subject of data set [4] is HER2. The experiment in a line: HER2 degradation assay with BT-474 cell line (Example 12, FACS). The class given is cell-based, human.
The next data set has as its system H 3211 NSLC cells. Kind of data set: IC50 of continuous and pulsed exposure (Examples 9 and 10). In kind it is cell-based.
Data set [5] is described as follows: Mouse plasma stability protocol, up to 1 h (Examples 16-18). Conditions: for % Remaining (1 h): % Remaining of parent after 1 h incubation in mouse plasma at 37° C. (10 μM).
Data set [6] relates to human urinary bladder cancer cell line SW780. Kind of data set: Cytotoxicity assay (CellTiter-Glo, 72 h), SW780. The class given is cell-based. Particulars: SW780, 72 h, read-out: Cytotoxicity (IC50, nM) SW-780.
Experimental: (§1) Cytotoxicity of SDC-TRAP molecules was determined in three cancer cell lines. […] 80 μL of CellTiter-Glo was added to each well, followed by room temperature incubation in the dark for 15 minutes. Cell was determined by luminescence. IC50 was calculated using XLfit™ software.
The test system of data set [7] is human urinary bladder cancer cell line RT-112. Kind of data set: Cytotoxicity assay (CellTiter-Glo, 72 h), RT-112. In kind it is cell-based. Particulars: RT-112, 72 h, read-out: Cytotoxicity (IC50, nM) RT-112.
Experimental: as §1
The next data set in a line: in vivo. Conditions: female, SCID, mouse.
For data set [8], the system named is human breast cancer cell line BT-474. Kind of data set: Cytotoxicity assay (CellTiter-Glo, 72 h), BT-474. The class given is cell-based. Particulars: BT-474, 72 h, read-out: Cytotoxicity (IC50, nM) BT-474.
Experimental: as §1
Where [9] appears, read: read-out: IC50, 1h-pulse/71h-compound free, 7.5 × 10^3 cells/well, two replicate columns.
Where [10] appears, read: read-out: IC50, 72h-continuous, 7.5 × 10^3 cells/well, three replicate columns.
Where [11] appears, read: Tissue Distribution Data for SDC-TRAP-0171, Time (h) 0.083.
The mark [12] stands for this setting: Tissue Distribution Data for SDC-TRAP-0171, Time (h) 1.
[13] abbreviates: Tissue Distribution Data for SDC-TRAP-0171, Time (h) 6.
Where [14] appears, read: Tissue Distribution Data for SDC-TRAP-0171, Time (h) 24.
Setting [15] is: Tissue Distribution Data for SDC-TRAP-0171, Time (h) 48.

`CCc1c2c(nc3ccc(OC(=O)N(C)CCOCCn4ccc5cc(-n6c(O)nnc6-c6cc(C(C)C)c(O)cc6O)ccc54)cc13)-c1cc3c(c(=O)n1C2)COC(=O)C3(O)CC` (stereo not drawn) [SDC-TRAP-0029, 4,11-diethyl-4-hydroxy-3,14-dioxo-3,4,12,14-tetrahydro-1H-pyrano[3′,4′:6,7]indolizino[1,2-b]quinolin-9-yl (2-(2-(5-(3-(2,4-dihydroxy-5-isopropylphenyl)-5-hydroxy-4H-1,2,4-triazol-4-yl)-1H-indol-1-yl)ethoxy)ethyl)(methyl)carbamate]: the IC50 was 1600 nM with HER2 [1]; 125 nM in the data set with Human H3122 NSCLC cells; 1370 nM in the data set on HER2 [4]; more than 3000 nM in the data set with H 3211 NSLC cells (1 h, read-out: IC50, 1h-pulse/71h-compound free, 7.5 × 10^3 cells/well, two replicate columns); more than 3000 nM in the data set on H 3211 NSLC cells (setting [9]). The “Mass Retention” value in [2] stood at 84.0%. For the same compound, the “Media (5 μM) % Remaining 19 h (37° C.)” value in [3] is 29%. In data set [3] (data from single parent peak), the “Media (5 μM) % Remaining 1 h (37° C.)§” value is recorded as 43%. Also, the “Media (5 μM) % Remaining 1 h (37° C.)*” value in data set [3] (sum of both peaks) is 46%. Moreover, the “% Remaining (1 h)” value in data set [5] was determined as 47.0%. The “% Remaining (1 h, 37° C.)” value in [5] (mouse plasma, 1 h, 37° C.) is 47%. In addition, the “Mouse (10 μM) % Remaining 1 h (37° C.)§” value in data set [5] (mouse plasma, data from single parent peak) was found to be 44%. The “Mouse (10 μM) % Remaining 1 h (37° C.)*” value in data set [5] (mouse plasma, sum of both peaks) was determined as 47%.
As to `CCc1c2c(nc3ccc(OC(=O)N(C)CCN(C)C(=O)c4cc5cc(-n6c(O)nnc6-c6cc(C(C)C)c(O)cc6O)ccc5n4C)cc13)-c1cc3c(c(=O)n1C2)COC(=O)C3(O)CC` (stereo not drawn) [SDC-TRAP-0010], the IC50 is more than 5000 nM with HER2 [1]; 234 nM with Human H3122 NSCLC cells; more than 5000 nM in the data set on HER2 [4]; 144 nM and 327 nM and 232 nM in the data set with H 3211 NSLC cells (setting [10]).
Turning to `CC(C)c1cc(-c2nnc(O)n2-c2ccc(CN3CCN(C(=O)Oc4ccc(COC(=O)Nc5cccc6c5CN(C5CCC(=O)NC5=O)C6=O)cc4)CC3)c(F)c2)c(O)cc1O` (stereo not drawn) [SDC-TRAP-0171, 4-((((2-(2,6-dioxopiperidin-3-yl)-1-oxoisoindolin-4-yl)carbamoyl)oxy)methyl)phenyl-4-(4-(3-(2,4-dihydroxy-5-isopropylphenyl)-5-hydroxy-4H-1,2,4-triazol-4-yl)-2-fluorobenzyl)piperazine-1-carboxylate], the IC50 in [6] turned out to be 275 nM; in data set [7] it was 20 nM; in the data set on HER2 [4] it was 199 nM; in data set [8], 58 nM. The Kp at 1 h in “in vivo” was determined as 0.0589. The same compound showed a Kp at 6 h in “in vivo” of 1.59. In addition, the Kp at 24 h in the data set “in vivo” worked out at 100. Moreover, the Kp at […] in “in vivo” came to 0.0179. This compound had a concentration at 1 h in “in vivo” of 217 µM. The same compound displayed a concentration at 6 h in the data set “in vivo” of 4.51 µM. The same compound displayed a concentration at 24 h in “in vivo” of 0.028 µM. Moreover, in the data set “in vivo”, the concentration at 48 h was 0.241 µM. This compound came in with a concentration at […] in “in vivo” of 918 µM. For the same compound, the “Plasma Conc.” value reads like this: under setting [11], 618 µM; under setting [12], 32.2 µM; under setting [13], 1.21 µM; under setting [14], 0.00162 µM; under setting [15], “BQL”. In addition, the “Tumor Conc.” value is, setting by setting: under setting [11], 0.083 nmol/g of tissue; under setting [12], 1 nmol/g of tissue; under setting [13], 6 nmol/g of tissue; under setting [14], 24 nmol/g of tissue; under setting [15], 48 nmol/g of tissue; (Tissue Distribution Data for SDC-TRAP-0178, Time (h) 0.083) 16.4 nmol/g of tissue. Further, the “Tumor Conc.” value (Tissue Distribution Data for SDC-TRAP-0178, Time (h) 1) is listed as 12.8 nmol/g of tissue; the “Tumor Conc.” value (Tissue Distribution Data for SDC-TRAP-0178, Time (h) 6) is 7.17 nmol/g of tissue; the “Tumor Conc.” value (Tissue Distribution Data for SDC-TRAP-0178, Time (h) 24) was 2.81 nmol/g of tissue; the “Tumor Conc.” value (Tissue Distribution Data for SDC-TRAP-0178, Time (h) 48) is reported as 1.01 nmol/g of tissue. Moreover, the “Tumor/Plasma Ratio” value is given as 0.0164 under setting [11], 0.249 under setting [12], 3.10 under setting [13] and 407 under setting [14]. In addition, the “% Remaining (1 h)” value in [5] is 17.7%.
Turning to `CCc1c2c(nc3ccc(O)cc13)-c1cc3c(c(=O)n1C2)COC(=O)C3(CC)OC(=O)CCCNC(=O)c1cc2cc(-n3c(O)nnc3-c3cc(C(C)C)c(O)cc3O)ccc2n1C` (stereo not drawn) [SDC-TRAP-0024, 4,11-diethyl-9-hydroxy-3,14-dioxo-3,4,12,14-tetrahydro-1H-pyrano[3′,4′:6,7]indolizino[1,2-b]quinolin-4-yl 4-(5-(3-(2,4-dihydroxy-5-isopropylphenyl)-5-hydroxy-4H-1,2,4-triazol-4-yl)-1-methyl-1H-indole-2-carboxamido)butanoate], the IC50 in the data set with HER2 [1] was more than 5000 nM; with Human H3122 NSCLC cells, 99 nM; with H 3211 NSLC cells (setting [9]), 697 nM and 2210 nM; in the data set on H 3211 NSLC cells (setting [10]) it was < 12 nM and 118 nM and 104 nM.
